The target of one assay is c-AMP phosphodiesterase (erythrocytes). The experiment in a line: Inhibition of cyclic AMP phosphodiesterase (erythrocytes). The assay is classed as biochemical. As to conditions: phosphodiesterase extracted from erythrocytes, phosphate buffer pH 7.4, radiochemical procedure. As to the method:
The procedure used was that described by Arch, J. R. S. and Newsholme, E. A. in Biochem. J. 158, 603, (1976):
Erythrocytes were obtained from Na-citrate (16 mM; 0.1 ml/ml blood) anticoagulated blood by repeated centrifugation with removal of the buff coat and washing with an isotonic buffer (composition in mM: NaCl […], KCl 4, CACl2.2 H2 O 1.8, Na2 HPO4.12 H2 O 0.8, NaH2 PO4 0.2, MgSO4.7 H2 O 0.7, Hepes 3.4; pH 7.4).
The phosphodiesterase was extracted by mixing the erythrocytes with 4 volumes of 7 mM phosphate buffer, pH 7.4, followed by sonification (3×10 sec; 100 W) and then centrifuging for 30 min at 4200 x g.
All supernatants were diluted in the extraction medium and assayed for phosphodiesterase activity within 6 hours of preparation, using the radiochemical procedure described in the above mentioned reference.
In turn, `CC(=O)Cn1cnc2c1c(=O)n(CC1CCCCC1)c(=O)n2CC1CCCCC1` [Example 8, 1,3-Di-cyclohexylmethyl-7-(2-oxopropyl)-xanthine] registered an inhibitory constant (Ki) of 2300 nM.

`O=c1c2[nH]cnc2n(CC2CC2)c(=O)n1CC1CC1` [Example 1, 1,3-Di-cyclopropylmethyl xanthine] had a Ki of 5700 nM.

`O=c1c2[nH]cnc2n(C2CCCC2)c(=O)n1CC1CC1` [Example 18, 1-(Cyclopropylmethyl)-3-cyclopentylxanthine] came in with a Ki of 8400 nM.

Molecule `O=c1c2c(ncn2CC2CC2)n(CC2CC2)c(=O)n1CC1CC1` [Example 16, 1,3,7-Tri-cyclopropylmethyl-xanthine] displayed a Ki of 2300 nM.

`CC(O)Cn1cnc2c1c(=O)n(CC1CCCC1)c(=O)n2CC1CCCC1` (stereo not drawn) [Example 9, 1,3-Di-cyclopentylmethyl-7-(2-hydroxypropyl)-xanthine] had an inhibition constant (Ki) of 26600 nM.

Turning to `CCCn1cnc2c1c(=O)n(CC1CC1)c(=O)n2CC1CC1` [Example 14, 1,3-Di-cyclopropylmethyl-7-n-propyl xanthine], affinity was put at a Ki of 5270 nM.

`O=c1c2[nH]cnc2n(CC2CCCCC2)c(=O)n1CC1CC1` [Example 22, 1-(Cyclopropylmethyl)-3-(cyclohexylmethyl)xanthine] had a Ki of 23000 nM.

`O=c1c2[nH]cnc2n(CC2CCCC2)c(=O)n1CC1CCCC1` [Example 3, 1,3-Di-cyclopentylmethyl xanthine]: the Ki is 3700 nM. This Ki lies about 6.2-fold lower than the previous one.

`CC(=O)Cn1cnc2c1c(=O)n(CC1CCCC1)c(=O)n2CC1CCCC1` [Example 7, 1,3-Di-cyclopentylmethyl-7-(2-oxopropyl)-xanthine] showed a Ki of 1300 nM.

`CC(=O)Cn1cnc2c1c(=O)n(CC1CC1)c(=O)n2CC1CC1` [Example 5, 1,3-Di-cyclopropylmethyl-7-(2-oxopropyl)-xanthine] yielded a Ki of 1400 nM. The Ki values of the last two molecules are within 1.5-fold of each other.

Regarding `CC(O)Cn1cnc2c1c(=O)n(CC1CCC1)c(=O)n2CC1CCC1` (stereo not drawn) [Example 12, 1,3-Di-cyclobutylmethyl-7-(2-hydroxypropyl)-xanthine], the Ki came out at 13500 nM.

`CC(=O)Cn1cnc2c1c(=O)n(CC1CCC1)c(=O)n2CC1CCC1` [Example 6, 1,3-Di-cyclobutylmethyl-7-(2-oxopropyl)-xanthine] gave a Ki of 150 nM. This Ki lies about 90-fold lower than the previous one.

`O=c1c2[nH]cnc2n(CC2CCC2)c(=O)n1CC1CCC1` [Example 2, 1,3-Di-cyclobutylmethyl xanthine] displayed a Ki of 2200 nM.

As for `CC(=O)Cn1cnc2c1c(=O)n(C1CCCCC1)c(=O)n2C1CCCCC1` [Example 11, 1,3-Di-cyclohexyl-7-(2-oxopropyl)-xanthine], the inhibitory constant (Ki) was 2400 nM.

Molecule `CC(=O)Cn1cnc2c1c(=O)n(CC1CC1)c(=O)n2C1CCCC1` [Example 20, 1-(Cyclopropylmethyl)-3-cyclopentyl-7-(2-oxopropyl)-xanthine] had a Ki of 2000 nM. This Ki and that of the molecule before are within 1.5-fold of each other.

With `CC(=O)Cn1cnc2c1c(=O)n(CC1CC1)c(=O)n2CC1CCCCC1` [Example 19, 1-(Cyclopropylmethyl)-3-(cyclohexylmethyl)-7-(2-oxopropyl)xanthine], the affinity corresponds to a Ki of 2300 nM.

In the case of `O=c1c2[nH]cnc2n(CC2CCCCC2)c(=O)n1CC1CCCCC1` [Example 4, 1,3-Di-cyclohexylmethyl xanthine], the affinity, expressed as Ki, was 1700 nM.

Take `CCCn1cnc2c1c(=O)n(CC1CCC1)c(=O)n2CC1CCC1` [Example 15, 1,3-Di-cyclobutylmethyl-7-n-propyl xanthine]: the inhibitory constant (Ki) is 2400 nM.

On to `O=c1c2[nH]cnc2n(C2CCCCC2)c(=O)n1C1CCCCC1` [Example 10, 1,3-Di-cyclohexyl xanthine], for which the inhibitory constant (Ki) worked out at 800 nM.

With `O=c1c2[nH]cnc2n(C2CCC2)c(=O)n1C1CCC1` [Example 13, 1,3-Di-cyclobutyl-xanthine], the affinity corresponds to a Ki of 1700 nM. This Ki lies about 2.1-fold higher than the previous one.

The subject of another assay is hippocampal CA1 field neuronal damage. The experiment in a line: Delayed neuronal death in gerbils after transient forebrain ischaemia. The assay is classed as in vivo, gerbil. As to conditions: 5.0 mg/kg i.p.; conclusion in words. On the procedure:
Ischaemia was produced in adult male gerbils by occlusion of both common carotid arteries for 3 minutes under halothane/nitrous oxide anaesthesia. During surgery the animals were placed upon a warming blanket. The ischaemia led to neuronal degeneration and to disturbed brain function.
Brains were removed 2 weeks later and 12 μm thick coronal slices were examined light microscopically for neuronal degeneration.
Three groups of animals were used:
2. solvent-treated ligated controls
3. compound-treated ligated animals
The compound was administered 1 hour before the ligation period.
Means±SEM (n) of histopathological score [HPS] which reflects the degree of neuronal damage in the hippocampal CA1 field: […]
In the case of `O=c1c2[nH]cnc2n(CC2CC2)c(=O)n1CC1CC1` [Example 1, 1,3-Di-cyclopropylmethyl xanthine], the “Prevention of ischaemia induced neuronal degeneration” value was “significantly prevented ischaemia induced neuronal degeneration”.

Source of the values: patent US5321029A, “Xanthines” (Beecham-Wuelfing GmbH & Co.K.G., priority 1988, dated 1994).
